Consider four compounds from PubChem BioAssay (NCI).

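48-hour exposure; five concentrations; linearly interpolated endpoints. The concentration for 50% growth inhibition is given as GI50. TGI denotes the concentration required for complete inhibition of growth.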

The first experiment relates to U251 CNS. Description: NCI tumour cell line growth inhibition, 48 h.
The compound `O=[N+]([O-])c1cccc(-c2csc(NNC3=NC/C(=C/c4ccc5c(c4)OCO5)S3)n2)c1` returned a TGI greater than 100 µM.

Another experiment concerns ACHN renal. Description: NCI tumour cell line growth inhibition, 48 h.
Turning to `COc1cc(C(=O)N(C(=S)OCc2ccccn2)c2ccccc2)cc(OC)c1OC`, the TGI is greater than 100 µM.

On to `CC(=O)OC1CC(OC2C(O)CC(OC3C(O)CC(OC4CCC5(C)C(CCC6C5CC(O)C5(C)C(C7=CC(=O)OC7)CCC65O)C4)OC3C)OC2C)OC(C)C1OC1OC(CO)C(O)C(O)C1O` (stereo not given), for which the TGI is 0.146 µM.

In turn, `O=[N+]([O-])c1cccc(-c2csc(NNC3=NC/C(=C/c4ccc5c(c4)OCO5)S3)n2)c1` came in with a TGI greater than 100 µM.

The test system of a further experiment is SK-OV-3 ovarian. Description: NCI tumour cell line growth inhibition, 48 h.
`COc1cc(C(=O)N(C(=S)OCc2ccccn2)c2ccccc2)cc(OC)c1OC` had a TGI greater than 100 µM.

For the compound `[N-]=[N+]=NC[C@H]1OCO[C@H](CN=[N+]=[N-])[C@@H](OCCOCCCl)[C@@H]1OCCOCCCl`, the TGI is greater than 100 µM.

Compound `CC(=O)OC1CC(OC2C(O)CC(OC3C(O)CC(OC4CCC5(C)C(CCC6C5CC(O)C5(C)C(C7=CC(=O)OC7)CCC65O)C4)OC3C)OC2C)OC(C)C1OC1OC(CO)C(O)C(O)C1O` (stereo not given) came in with a TGI of 0.333 µM.

As to `O=[N+]([O-])c1cccc(-c2csc(NNC3=NC/C(=C/c4ccc5c(c4)OCO5)S3)n2)c1`, the TGI stood at 79 µM.

The subject of another experiment is SF-539 CNS. Description: NCI tumour cell line growth inhibition, 48 h.
Regarding `COc1cc(C(=O)N(C(=S)OCc2ccccn2)c2ccccc2)cc(OC)c1OC`, the TGI stood at 81 µM.

On to `[N-]=[N+]=NC[C@H]1OCO[C@H](CN=[N+]=[N-])[C@@H](OCCOCCCl)[C@@H]1OCCOCCCl`, for which the TGI was greater than 100 µM.

Turning to `CC(=O)OC1CC(OC2C(O)CC(OC3C(O)CC(OC4CCC5(C)C(CCC6C5CC(O)C5(C)C(C7=CC(=O)OC7)CCC65O)C4)OC3C)OC2C)OC(C)C1OC1OC(CO)C(O)C(O)C1O` (stereo not given), the TGI turned out to be 0.0891 µM.

The compound `O=[N+]([O-])c1cccc(-c2csc(NNC3=NC/C(=C/c4ccc5c(c4)OCO5)S3)n2)c1` came in with a TGI greater than 100 µM.

In the next experiment the test system is SN12C renal. Description: NCI tumour cell line growth inhibition, 48 h.
`COc1cc(C(=O)N(C(=S)OCc2ccccn2)c2ccccc2)cc(OC)c1OC` showed a TGI greater than 100 µM.

As for `[N-]=[N+]=NC[C@H]1OCO[C@H](CN=[N+]=[N-])[C@@H](OCCOCCCl)[C@@H]1OCCOCCCl`, the TGI was greater than 100 µM.

For `CC(=O)OC1CC(OC2C(O)CC(OC3C(O)CC(OC4CCC5(C)C(CCC6C5CC(O)C5(C)C(C7=CC(=O)OC7)CCC65O)C4)OC3C)OC2C)OC(C)C1OC1OC(CO)C(O)C(O)C1O` (stereo not given), the GI50 is 0.0194 µM and the TGI worked out at 0.112 µM.

For `O=[N+]([O-])c1cccc(-c2csc(NNC3=NC/C(=C/c4ccc5c(c4)OCO5)S3)n2)c1`, the TGI was greater than 100 µM.

The subject of a further experiment is NCI-H23 lung. Description: NCI tumour cell line growth inhibition, 48 h.
The compound `COc1cc(C(=O)N(C(=S)OCc2ccccn2)c2ccccc2)cc(OC)c1OC` displayed a TGI greater than 100 µM.

Compound `[N-]=[N+]=NC[C@H]1OCO[C@H](CN=[N+]=[N-])[C@@H](OCCOCCCl)[C@@H]1OCCOCCCl` yielded a TGI greater than 100 µM.

As to `CC(=O)OC1CC(OC2C(O)CC(OC3C(O)CC(OC4CCC5(C)C(CCC6C5CC(O)C5(C)C(C7=CC(=O)OC7)CCC65O)C4)OC3C)OC2C)OC(C)C1OC1OC(CO)C(O)C(O)C1O` (stereo not given), the TGI was found to be 0.0744 µM.

For the compound `O=[N+]([O-])c1cccc(-c2csc(NNC3=NC/C(=C/c4ccc5c(c4)OCO5)S3)n2)c1`, the TGI came to 48.9 µM.

The subject of the next experiment is PC-3 prostate. Description: NCI tumour cell line growth inhibition, 48 h.
`COc1cc(C(=O)N(C(=S)OCc2ccccn2)c2ccccc2)cc(OC)c1OC` displayed a TGI greater than 100 µM.

`[N-]=[N+]=NC[C@H]1OCO[C@H](CN=[N+]=[N-])[C@@H](OCCOCCCl)[C@@H]1OCCOCCCl` had a TGI greater than 100 µM.

Take `CC(=O)OC1CC(OC2C(O)CC(OC3C(O)CC(OC4CCC5(C)C(CCC6C5CC(O)C5(C)C(C7=CC(=O)OC7)CCC65O)C4)OC3C)OC2C)OC(C)C1OC1OC(CO)C(O)C(O)C1O` (stereo not given): the GI50 is 0.0522 µM and the TGI is 0.206 µM.

In turn, `O=[N+]([O-])c1cccc(-c2csc(NNC3=NC/C(=C/c4ccc5c(c4)OCO5)S3)n2)c1` displayed a TGI of 55.8 µM.

The next experiment has as its system UO-31 renal. Description: NCI tumour cell line growth inhibition, 48 h.
In turn, `COc1cc(C(=O)N(C(=S)OCc2ccccn2)c2ccccc2)cc(OC)c1OC` registered a TGI of 86.5 µM.

With `[N-]=[N+]=NC[C@H]1OCO[C@H](CN=[N+]=[N-])[C@@H](OCCOCCCl)[C@@H]1OCCOCCCl`, the TGI came to 57.2 µM.

On to `CC(=O)OC1CC(OC2C(O)CC(OC3C(O)CC(OC4CCC5(C)C(CCC6C5CC(O)C5(C)C(C7=CC(=O)OC7)CCC65O)C4)OC3C)OC2C)OC(C)C1OC1OC(CO)C(O)C(O)C1O` (stereo not given), for which the TGI was determined as 0.179 µM.

On to `O=[N+]([O-])c1cccc(-c2csc(NNC3=NC/C(=C/c4ccc5c(c4)OCO5)S3)n2)c1`, for which the TGI came out at 85.6 µM.

The subject of a further experiment is HCT-116 colon. Description: NCI tumour cell line growth inhibition, 48 h.
For `COc1cc(C(=O)N(C(=S)OCc2ccccn2)c2ccccc2)cc(OC)c1OC`, the TGI was greater than 100 µM.

Consider `[N-]=[N+]=NC[C@H]1OCO[C@H](CN=[N+]=[N-])[C@@H](OCCOCCCl)[C@@H]1OCCOCCCl`, for which the TGI is greater than 100 µM.

In turn, `CC(=O)OC1CC(OC2C(O)CC(OC3C(O)CC(OC4CCC5(C)C(CCC6C5CC(O)C5(C)C(C7=CC(=O)OC7)CCC65O)C4)OC3C)OC2C)OC(C)C1OC1OC(CO)C(O)C(O)C1O` (stereo not given) gave a TGI of 0.139 µM.

For `O=[N+]([O-])c1cccc(-c2csc(NNC3=NC/C(=C/c4ccc5c(c4)OCO5)S3)n2)c1`, the TGI was greater than 100 µM.

Another experiment concerns HL-60(TB) leukemia. Description: NCI tumour cell line growth inhibition, 48 h.
`COc1cc(C(=O)N(C(=S)OCc2ccccn2)c2ccccc2)cc(OC)c1OC` registered a TGI greater than 100 µM.

In turn, `[N-]=[N+]=NC[C@H]1OCO[C@H](CN=[N+]=[N-])[C@@H](OCCOCCCl)[C@@H]1OCCOCCCl` came in with a TGI greater than 100 µM.

On to `CC(=O)OC1CC(OC2C(O)CC(OC3C(O)CC(OC4CCC5(C)C(CCC6C5CC(O)C5(C)C(C7=CC(=O)OC7)CCC65O)C4)OC3C)OC2C)OC(C)C1OC1OC(CO)C(O)C(O)C1O` (stereo not given), for which the TGI came out at 0.22 µM.

As to `O=[N+]([O-])c1cccc(-c2csc(NNC3=NC/C(=C/c4ccc5c(c4)OCO5)S3)n2)c1`, the TGI was greater than 100 µM.

The next experiment concerns UACC-62 melanoma. Description: NCI tumour cell line growth inhibition, 48 h.
Turning to `COc1cc(C(=O)N(C(=S)OCc2ccccn2)c2ccccc2)cc(OC)c1OC`, the TGI was greater than 100 µM.

With `[N-]=[N+]=NC[C@H]1OCO[C@H](CN=[N+]=[N-])[C@@H](OCCOCCCl)[C@@H]1OCCOCCCl`, the TGI is greater than 100 µM.

With `CC(=O)OC1CC(OC2C(O)CC(OC3C(O)CC(OC4CCC5(C)C(CCC6C5CC(O)C5(C)C(C7=CC(=O)OC7)CCC65O)C4)OC3C)OC2C)OC(C)C1OC1OC(CO)C(O)C(O)C1O` (stereo not given), the TGI came to 0.404 µM.

`O=[N+]([O-])c1cccc(-c2csc(NNC3=NC/C(=C/c4ccc5c(c4)OCO5)S3)n2)c1`: the TGI was 56.5 µM.

Another experiment deals with NCI/ADR-RES ovarian. Description: NCI tumour cell line growth inhibition, 48 h.
In turn, `COc1cc(C(=O)N(C(=S)OCc2ccccn2)c2ccccc2)cc(OC)c1OC` yielded a TGI greater than 100 µM.

The compound `[N-]=[N+]=NC[C@H]1OCO[C@H](CN=[N+]=[N-])[C@@H](OCCOCCCl)[C@@H]1OCCOCCCl` displayed a TGI greater than 100 µM.

In the case of `CC(=O)OC1CC(OC2C(O)CC(OC3C(O)CC(OC4CCC5(C)C(CCC6C5CC(O)C5(C)C(C7=CC(=O)OC7)CCC65O)C4)OC3C)OC2C)OC(C)C1OC1OC(CO)C(O)C(O)C1O` (stereo not given), the TGI is 0.122 µM.

Compound `O=[N+]([O-])c1cccc(-c2csc(NNC3=NC/C(=C/c4ccc5c(c4)OCO5)S3)n2)c1` yielded a TGI of 53 µM.

Another experiment has as its system 786-0 renal. Description: NCI tumour cell line growth inhibition, 48 h.
As for `COc1cc(C(=O)N(C(=S)OCc2ccccn2)c2ccccc2)cc(OC)c1OC`, the TGI was greater than 100 µM.

As to `[N-]=[N+]=NC[C@H]1OCO[C@H](CN=[N+]=[N-])[C@@H](OCCOCCCl)[C@@H]1OCCOCCCl`, the TGI is greater than 100 µM.

In turn, `CC(=O)OC1CC(OC2C(O)CC(OC3C(O)CC(OC4CCC5(C)C(CCC6C5CC(O)C5(C)C(C7=CC(=O)OC7)CCC65O)C4)OC3C)OC2C)OC(C)C1OC1OC(CO)C(O)C(O)C1O` (stereo not given) had a TGI of 0.107 µM.

For the compound `O=[N+]([O-])c1cccc(-c2csc(NNC3=NC/C(=C/c4ccc5c(c4)OCO5)S3)n2)c1`, the TGI is greater than 100 µM.

The subject of the next experiment is SF-295 CNS. Description: NCI tumour cell line growth inhibition, 48 h.
`[N-]=[N+]=NC[C@H]1OCO[C@H](CN=[N+]=[N-])[C@@H](OCCOCCCl)[C@@H]1OCCOCCCl` displayed a TGI greater than 100 µM.

Compound `CC(=O)OC1CC(OC2C(O)CC(OC3C(O)CC(OC4CCC5(C)C(CCC6C5CC(O)C5(C)C(C7=CC(=O)OC7)CCC65O)C4)OC3C)OC2C)OC(C)C1OC1OC(CO)C(O)C(O)C1O` (stereo not given) came in with a TGI of 0.179 µM.

On to `O=[N+]([O-])c1cccc(-c2csc(NNC3=NC/C(=C/c4ccc5c(c4)OCO5)S3)n2)c1`, for which the TGI is greater than 100 µM.

The test system of another experiment is OVCAR-3 ovarian. Description: NCI tumour cell line growth inhibition, 48 h.
`COc1cc(C(=O)N(C(=S)OCc2ccccn2)c2ccccc2)cc(OC)c1OC` displayed a TGI greater than 100 µM.

The compound `[N-]=[N+]=NC[C@H]1OCO[C@H](CN=[N+]=[N-])[C@@H](OCCOCCCl)[C@@H]1OCCOCCCl` registered a TGI greater than 100 µM.
